From patent publication US10662124B2, “Fertilizer composition containing oxidized glutathione and fertilizer element for foliar application” (Kaneka Corporation, priority 2015, dated 2020)

Experiments:
[1] = system: Lettuce seedlings (Green leaf lettuce, Sakata Seed Corporation); assay: Example 6: spray-application to leaf surface with different amounts of fertilizer elements, lettuce seedling-raising test; format: in vivo
Experimental: (§1) Lettuce seedlings (Green leaf lettuce, Sakata Seed Corporation) were raised under the conditions described below.
(§2) Place: Inside a plant incubator
(§3) Soil: Black soil (40 ml/pot)
(§4) Light: 115 μmol m^−2 s^−1 (10,000 lux) (light period: 16 hours; dark period: 8 hours)
Number of tested plants (n): 4
(§5) Water supply: During the seedling-raising test, water was adequately supplied so as to prevent the soil in the pot from being dehydrated (about 20 ml/week).
Test groups: […] test groups: i.e., Control group, Comparative group 7, Formulation group 1 (15 parts of the fertilizer), Formulation group 2 (30 parts of the fertilizer), Formulation group 3 (100 parts of the fertilizer), Formulation group 4 (150 parts of the fertilizer), Formulation group 5 (200 parts of the fertilizer), and Formulation group 6 (400 parts of the fertilizer), were provided as shown in Table 11 below.
(§6) Control group was tested through application of fertilizer elements (nitrogen, phosphorus, and potassium) only to soil without the application of GSSG.
(§7) In the case of Control group, soil was prepared to contain nitrogen, phosphorus, and potassium in an amount of 40 mg each (120 mg in total per pot) in terms of N, P2O5, and K2O, respectively, at the time of sowing. Specifically, 40 ml of soil, 156 mg of ammonium sulfate, 66 mg of monobasic ammonium phosphate, and 80 mg of potassium sulfate were weighed and introduced into a container, these elements were mixed to prepare a homogeneous composition, and the resultant was introduced into a pot. Ammonium sulfate used in the experiment contained 21% of nitrogen (in terms of N), monobasic ammonium phosphate contained 11% of nitrogen (in terms of N) and 61% of phosphorus (in terms of P2O5), and potassium sulfate contained 50% of potassium (in terms of K2O) (based on the indication of each product).
(§8) Lettuce seeds were sowed in soil in the pot and the seedling-raising test was then initiated.
Comparative group 7 was tested through application of GSSG to the leaf surface and fertilizer elements (nitrogen, phosphorus, and potassium) to soil. […]

[2] = system: Lettuce seedlings (Green leaf lettuce, Sakata Seed Corporation); assay: Example 2: effects of application on leaf surface, lettuce seedling-raising test; format: in vivo; settings: for Weight (fresh weight, average, of the terrestrial parts): 2 weeks, n=3; for Growth rate (fresh weight of terrestrial parts relative to Control group): Control group = 100
Experimental: as §1, §2, §3, §4
Number of tested plants (n): 3
as §5
Test groups: Four test groups: i.e., Control group, Comparative group 1, Comparative group 2, and Invention group, were provided as shown in Table 3 below.
as §6
as §7, with “to comprise” for “to contain”, “these components” for “these elements”, “N), and” for “N),”
as §8
Comparative group 1 was tested through application of GSSG and a fertilizer elements (nitrogen, phosphorus, and potassium) only to soil.
The method for application of fertilizer elements to soil and the amount of application are as described above with reference to Control group.
GSSG was applied to soil with the addition of an aqueous solution of GSSG to soil. At the outset, an aqueous solution of GSSG (in terms of free GSSG, the same applies hereinbelow) dissolved at 300 ppm in water was prepared. Subsequently, the aqueous solution of GSSG was applied in an amount of 4 ml each (12 ml in total) three separate times at intervals of 3 days from 6 days after seedling raising was initiated. Thus, 3.6 mg of GSSG (in terms of free GSSG) was applied during the test period per pot. […]
In Invention group, soil was prepared to contain the fertilizer elements (i.e., 36 mg each of nitrogen, phosphorus, and potassium in terms of N, P2O5, and K2O, respectively, 108 mg in total per pot) at the time of sowing. Specifically, 40 ml of soil and, as fertilizer elements, 140.4 mg of ammonium sulfate, 59.4 mg of ammonium phosphate, and 72 mg of potassium sulfate, were weighed and introduced into a container, these components were mixed to prepare a homogeneous composition, and the resultant was then introduced into a pot.
GSSG was spray-applied to the leaf surface as described below. The finely-powdered water-soluble preparation (1) of the formulation A as described in Example 1 (33.8 mg) was dissolved in 12 ml of water to prepare an aqueous solution containing GSSG and fertilizer elements. […]

Substance: Oxidized glutathione [GSSG]
- Weight (fresh weight, average, of the terrestrial parts) ([1]; 2 weeks, n=4, 3.5 mg GSSG with 0-400 parts of fertilizer per 100 parts GSSG sprayed to leaf surface three times, 12 ml in total per pot, rest of fertilizer to soil): 88 mg
- Plant growth promotion versus Control group ([1]; Comparative group 7 compared with Control group): plant growth is promoted
- Growth rate (fresh weight of terrestrial part relative to Control group) ([1]; Control group = 100, 3.5 mg GSSG with 0-400 parts of fertilizer per 100 parts GSSG sprayed to leaf surface): 131%
- Plant growth promotion versus Control group ([2]; Comparative group 1 (GSSG to soil) compared with Control group): plant growth is promoted
- Weight (fresh weight, average, of the terrestrial parts) ([2]; GSSG applied to soil, 3.6 mg per pot in three applications, fertilizer elements to soil): 90 mg
- Growth rate (fresh weight of terrestrial parts relative to Control group) ([2]; GSSG applied to soil, 3.6 mg per pot, fertilizer elements to soil): 130%
- Growth rate (fresh weight of terrestrial parts relative to Control group) ([2]; sprayed to the leaf surface three times, 12 ml in total per pot (3.5-3.6 mg GSSG)): 149%
- Weight (fresh weight, average, of the terrestrial parts) ([2]; sprayed to the leaf surface three times, 12 ml in total per pot (3.5-3.6 mg GSSG), remaining fertilizer elements to soil): 103 mg
